Reference: PMC8491194, “A cyclic peptide retards the proliferation of DU145 prostate cancer cells in vitro and in vivo through inhibition of FGFR2” (MedComm, 2020)
Where a SMILES comes first, the peptide text is derived from it. Bridges are numbered along the chain shown (N, C = ends). Where no end group is shown, it is not given here. [ ]: non-standard residue; d: D form.

What was measured:
DU145 cells [1] = assay: CCK-8 cell proliferation, DU145 cells; type: cell-based, human; settings: DU145, concentrations of 6.25 and 12.5 μM
Protocol: (§1) The cell lines, including DU145 (human prostate cancer cells, American Type Culture Collection/ATCC, Manassas, VA), LNCaP (human prostate cancer cells, ATCC, Manassas, VA), KYSE30 (human esophageal squamous cell carcinoma cells, ATCC, Manassas, VA), KYSE510 (human esophageal squamous cell carcinoma cells, ATCC, US), L02 (human normal liver cells, ATCC, Manassas, VA), and MCF‐7 (human breast cancer cells, ATCC, Manassas, VA) were cultured in DMEM medium (Thermo Gibco, Waltham, MA) with 10% FBS (Biological Industries, Israel). The SGC7901 (human gastric cancer cells, ATCC, Manassas, VA) cells were maintained in RPMI‐1640 medium (Thermo Gibco, Waltham, MA) with 10% FBS. All these cell lines were cultured at 37°C in a 5% CO2 cell incubator (Bio‐Rad, Hercules, CA). Subculture of these cell lines was employed with 0.25% trypsin (Thermo Gibco, Waltham, MA).
The cells were seeded at a density of 30 000 cells/mL based on cell counting performed with a cell counting plate. […]
(§2) Cell proliferation was evaluated using the Enhanced CCK‐8 cell proliferation and toxicity test kit (Meilunbio, China) according to the product specifications. Finally, the OD450 nm and OD630 nm were measured with an iMark dual wavelength microplate reader (Bio‐Rad, Hercules, CA), and the ratio of OD450 nm/OD630 nm was calculated.

DU145 cells [2] = assay: Colony formation of DU145 cells; type: cell-based, human; settings: 12.5 μM
Protocol: Cell colony formation was also employed to evaluate the effect of P5 and DcP5. The DU145 cells were seeded in six‐well plates (500 cells/well). The cultural supernatant was removed at 48 hours posttreatment, followed by washing with PBS three times. The cells were then fixed with 4% paraformaldehyde and air dried. Crystal violet staining was performed using solution (Sangon, China) as per the instructions. Then, photographs were taken, and spot amounts were calculated with an Invitrogen Countess II FL (Thermo, Waltham, MA) cell counter.
(§3) In our study, peptide cyclization was achieved by adding two cysteine residues to each end of the peptides. Cysteine is a chiral molecule. The natural cysteine is L‐cysteine, and a report has shown that introduction of unnatural D‐cysteine can theoretically improve the stability of the cyclic peptide in vivo.[41], [42], [43] Therefore, we designed and synthesized two cyclic peptides, DcP5 and LcP5, with two L‐cysteines or D‐cysteines at each end, respectively. The amino acid polymers of DcP5 and LcP5 were synthesized via the same organic chemistry as the P5 peptide. The cysteine‐ending peptides were spontaneously cyclized at 37°C in PBS (pH = 9.0) for 12 hours. […] Then, the binding affinity of these two cyclic peptides to FGFR2 was measured by ITC as described in Section 2.1. […]

[3] = tested on: FGFR2 knockdown DU145 cells; assay: Growth inhibition in FGFR2-knockdown (shFGFR2) DU145 cells; type: cell-based, human; settings: DU145, shFGFR2 knockdown vs wild type
Protocol: The cells were seeded at a density of 30 000 cells/mL based on cell counting performed with a cell counting plate. Different concentrations of the P5 peptide were added to the cultural medium, followed by a 24‐hour incubation at 37°C in a 5% CO2 cell incubator (Bio‐Rad, Hercules, CA). Five replicates were set up for each experimental group.
as §2
The shFGFR2 plasmid was purchased from Sigma (St Louis, MO) (TRCN0000218493). One microliter Lip3000 (Lipofectamine 3000, Invitrogen, Carlsbad, CA) was mixed with 100 ng plasmid in nonserum DMEM medium before being added into the cultural DU145 cells. The cells were incubated with the Lip3000/plasmid solution for 6 hours, followed by DMEM with 10% FBS incubation. The transfected cells were then ready for growth‐inhibition experiment and RNA extraction for qPCR.

DU145 xenograft = DU145 xenograft in nude mice, tumor growth; type: in vivo, BALB/C‐nu/nu mice; settings: intratumoral injection once a day for 7 days, evaluated to Day 14, P5 10-25 mg/kg, DcP5 10, 25, 50 mg/kg, P5-3 50 mg/kg
Protocol: The specific pathogen‐free (SPF) level experimental male nude mice were purchased from the Animal Center of Guangdong Province (China), and the strain was BALB/C‐nu/nu. The animal experiments were conducted by the Animal Experimental Center of Jinan University (China) according to the National Institutes of Health guide for the care and use of Laboratory animals. The treatment and experimental procedure met the requirements of animal ethics.
(§4) DU145 cells with a density above 90% were harvested in to a microtube. The cell concentration was adjusted to 1 × 10^7 cells/mL, and two million cells were injected under the right arm of each individual. After injection, the tumors grew to a size of approximately 200 mm^3 in the following days. […] Animal models were randomly selected and assigned to each experimental group, and compounds were administered by intratumoral injections. The dosing regimen was one injection a day for 7 days. The length and width of the tumor were measured using a Vernier caliper once a day, and the animal's weight was recorded once a day from the beginning of the experiment. On Day 14, blood samples of each animal were collected, the tumor tissue was separated and weighed, and internal organs were collected. The tumor volume was calculated according to the formula V = ab ^2/2 (a refers to the length of the tumor, and b refers to the width).

[4] = tested on: heart, liver, spleen, lung, and kidney; assay: H&E staining of major organs of tumor-bearing mice; type: in vivo, BALB/C‐nu/nu mice; settings: tumor-bearing mice at functional doses, paraffin sections
Protocol: as §4
Briefly, the connective tissue around the parenchyma organ was removed and washed three times in PBS, and the tissues were fixed with 10% formalin solution for 24 hours, followed by gradient ethanol dehydration. The tissues were then subjected to paraffin embedding. Sections of 4 μm thickness were prepared for H&E staining. H&E staining was performed according to the standard protocol of the H&E staining kit (Solarbio, China).

[5] = Body weight of tumor-bearing mice; type: in vivo, BALB/C‐nu/nu mice; settings: various dosing regimens; data not shown
Protocol: as §4

FGFR2 on DU145 cells = assay: Immunofluorescence assay (IFA) of biotin-labeled peptide binding to DU145 cells; type: cell-based, human
Protocol: The binding affinity was analyzed under fluorescent microscope. GFP‐labeled DU145 cells were cultured to a density of 50%, followed by 4% paraformaldehyde fixation. After treated with 0.2% Triton X‐100, the cells were then blocked with 5% BSA. The incubation was performed by different treatments and SA‐PE‐TRITC was used as a fluorescent indicator; briefly, the FGFR2 mAb group (Abcam [Cambridge, MA] followed by PE‐TRITC‐labeled goat antimouse IgG for color development), and the blank group (equal amounts of PBS followed by SA‐PE‐TRITC as a fluorescent indicator were added). After adding the biotin‐labeled P5 peptide, biotin‐labeled P5‐3 peptide or anti‐FGFR2 mAb, the cells were incubated at 4°C overnight. After washing five times with PBST, the TRITC‐labeled streptavidin regent or TRITC‐labeled secondary antibody was introduced for another incubation at 25°C for 30 minutes in dark. Finally, the DAPI staining reagent was employed to stain the nucleus for 10 minutes in dark, followed by washing five times with PBS. After the addition of ProLong Antifade mounting medium (Thermo, Waltham, MA), a confocal microscope (OLS4100, Japan) was used for observation.

[6] = Peptide concentration in peripheral blood after administration; type: in vivo, BALB/C‐nu/nu mice; settings: 25 mg/kg, serum; for time before blood concentration dropped below half C max: mice, biotin quantitation kit, sampled 0.5-24 hours postadministration
Protocol: as §4, with “On Day 14, blood samples of each animal were collected, the tumor tissue was separated and weighed, and internal organs were collected.” left out
Serum in the blood was separated and used to perform biotin quantitation with a Biotin Quantitation assay kit (MyBioSource, San Diego, CA) to calculate the concentration of the biotin‐peptide complex in the blood sample. Serum samples from the blank group were used as background controls, and serum of the 25 mg/kg‐dose P5 group and 25 mg/kg‐dose DcP5 group was examined in this step.

[7] = tested on: phosphorylated FGFR2, AKT, and ERK1/2; assay: Western blot of phosphorylated FGFR2, AKT and ERK1/2 in xenograft tumors; type: in vivo, BALB/C‐nu/nu mice; settings: tumor tissue of xenograft mice
Protocol: DU145 cells with a density above 90% were harvested in to a microtube. The cell concentration was adjusted to 1 × 10^7 cells/mL, and two million cells were injected under the right arm of each individual. […] Animal models were randomly selected and assigned to each experimental group, and compounds were administered by intratumoral injections. The dosing regimen was one injection a day for 7 days. The length and width of the tumor were measured using a Vernier caliper once a day, and the animal's weight was recorded once a day from the beginning of the experiment. On Day 14, blood samples of each animal were collected, the tumor tissue was separated and weighed, and internal organs were collected. The tumor volume was calculated according to the formula V = ab ^2/2 (a refers to the length of the tumor, and b refers to the width).
Cell lysates were subjected to SDS‐PAGE for Western blotting. Briefly, cells were lysed with RIPA buffer (Thermo, Waltham, MA), followed by heat denaturation in 1X Laemmli SDS buffer (Sigma, St Louis, MO). For SDS‐PAGE 100 μg proteins were loaded to each lane. After electrophoresis, the proteins were transferred onto PVDF membranes, followed by blocking in 5% nonfat milk. […] The bands were quantified using Image Lab Software 6.0 (Bio‐Rad, Hercules, CA).

FGFR2 = FGFR2 (Homo sapiens, UniProt P21802); assay: Isothermal titration calorimetry (ITC) binding to FGFR2 protein; settings: in Figure 4A, read-out: KD, P5-FGFR2
Sequence of FGFR2 (P21802 22-821): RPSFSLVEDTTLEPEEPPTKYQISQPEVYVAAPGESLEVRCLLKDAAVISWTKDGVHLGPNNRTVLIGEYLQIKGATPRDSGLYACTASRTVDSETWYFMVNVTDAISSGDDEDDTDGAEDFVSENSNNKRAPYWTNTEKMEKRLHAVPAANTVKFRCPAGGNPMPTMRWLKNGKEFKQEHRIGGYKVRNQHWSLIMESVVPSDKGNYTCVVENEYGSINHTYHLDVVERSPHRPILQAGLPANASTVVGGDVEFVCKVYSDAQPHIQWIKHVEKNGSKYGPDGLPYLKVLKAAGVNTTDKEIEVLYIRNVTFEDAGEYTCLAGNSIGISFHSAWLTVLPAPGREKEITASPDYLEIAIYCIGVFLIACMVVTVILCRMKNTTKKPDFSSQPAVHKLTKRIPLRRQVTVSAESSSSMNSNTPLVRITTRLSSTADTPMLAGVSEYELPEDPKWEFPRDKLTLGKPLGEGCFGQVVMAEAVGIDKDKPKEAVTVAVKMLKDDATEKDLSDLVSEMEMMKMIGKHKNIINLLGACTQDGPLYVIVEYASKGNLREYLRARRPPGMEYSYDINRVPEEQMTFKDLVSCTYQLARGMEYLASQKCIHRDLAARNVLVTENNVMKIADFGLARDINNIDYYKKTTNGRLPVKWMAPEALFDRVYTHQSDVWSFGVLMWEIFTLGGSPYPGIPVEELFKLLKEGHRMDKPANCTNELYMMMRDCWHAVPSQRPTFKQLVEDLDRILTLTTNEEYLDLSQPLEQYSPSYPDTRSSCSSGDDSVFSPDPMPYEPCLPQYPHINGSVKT
Protocol: A set of peptide candidates was designed with manual inspection, synthesized with a chemical dehydration reaction, and verified with MS. To screen the candidates, an in vitro binding assay using isothermal titration calorimetry (ITC) was performed against the FGFR2 protein using AutoiTC200 (MicroCal, MA). After the positive candidate was confirmed by ITC, three analog peptides with different mutant amino acids were designed to verify the active site previously determined. The binding affinity of each mutant analog to FGFR2 was measured using ITC and compared with the positive candidate.
as §3

L02 normal liver cells = assay: Toxicity toward L02 normal liver cells; type: cell-based, human; settings: in vitro
Protocol: as §1, §2

| Compound | growth-inhibition rate relative to P5 (DU145 cells [1]) | colony number versus control group (DU145 cells [2]; 500 cells/well, crystal violet) | less colonies than cells exposed to P5 (DU145 cells [2]; P < .05) [%] | growth inhibitory effect in FGFR2 knockdown cells compared to wild type cells [3] | tumor growth in xenograft (DU145 xenograft) | toxicity toward heart, liver, spleen, lung, and kidney (H&E morphology) [4] | body weight versus other groups incl. blank [5] | fluorescent intensity of treated cells relative to P5 (FGFR2 on DU145 cells; IFA) | binding to FGFR2 on cells (IFA) (FGFR2 on DU145 cells; biotin-labeled peptide) | time before blood concentration dropped below half C max [6] [h] | concentration in peripheral blood relative to P5 ([6]; 0.5 hour after administration, biotin quantitation kit (biotin-peptide)) | phosphorylation of FGFR2, AKT, and ERK1/2 [7] | Kd (FGFR2) [nM] | toxicity toward normal cells (L02 normal liver cells) |
| --- | --- | --- | --- | --- | --- | --- | --- | --- | --- | --- | --- | --- | --- | --- |
| CC(C)C[C@@H]1NC(=O)[C@H](N)CSSC[C@H](C(=O)O)NC(=O)[C@H](CCCNC(=N)N)NC(=O)[C@H](CCC(=O)O)NC(=O)[C@H](CCC(=O)O)NC(=O)[C@H](C)NC(=O)[C@H](CCC(N)=O)NC(=O)[C@H](CC(C)C)NC(=O)[C@H](CCC(N)=O)NC1=O [DcP5] (H-[dC]LQLQAEER[dC]-OH; disulfide 1-10; N-terminus and C-terminus assumed) | stronger inhibition than P5 | significantly less than the control group | 20 | significantly decreased | significantly decreased the tumor size in dose‐dependent manner | remained normal | little difference in body weight | significantly stronger | bind to FGFR2 | 7 | twice | reduced |  |  |
| LQLQAEER [P5] |  |  |  |  |  | negligible toxicity | little difference in body weight |  |  | 5 |  |  | 490 | negligible toxicity |
